# Results from patent publication US6153756A, “Soluble prodrugs of paclitaxel” (priority 1997, dated 2000).
# Values joined by “and” are separate entries in the source; they are usually repeats but may differ in a detail not shown here. Equal values may be shown once. Where a name gives a salt, the structure may show the parent alone. Read-outs that look alike come from different tables or passages of the source.
# Key:
# [1] = Stability of 2'-MPA after HPLC purification in presence of excess acetate; type: physicochemical; conditions: excess acetate ion, upon concentration of HPLC effluent, to paclitaxel
# [2] = Stability of paclitaxel 2'-methylpyridinium acetate (HPLC); type: physicochemical
# Protocol: The onium salt paclitaxel-2'-MPA was prepared by the method of Nicolaou et al., Angew. Chim. Int. Engl., 33:1583-1587 ([…]). A 2.40 mg/ml solution of the paclitaxel-2'-MPA was prepared by dissolving the salt (10.2 mg) in a solution of water (3.024 ml) and polyethylene glycol (1.234 ml). Samples of this solution were frozen. The frozen samples were slowly warmed to room temperature and homogenized with CH3 CN (50 μl). An aliquot (50 μl) was removed and diluted to a final volume of 200 μl with deionized H2 O and analyzed via HPLC (20 μl injection).
# Analysis conditions were as follows: […]
# Mobile phase: 50% MeOH/80 mM NH4 OAc
# [3] = Solubility of 2'-MPM in deionized water; type: physicochemical
# Protocol: Solubility: Deionized water (0.5 ml) was added to three samples of the 2'-MPM (1.54 mg, 0.97 mg and 0.80 mg) and the flask sonicated for approximately one (1) minute.
# [4] = Water solubility of paclitaxel and of its prodrugs (general statements); type: physicochemical; conditions: listed advantage of the novel salts
# [5] = Extraction of 2'-MPM from water into CH2Cl2; type: physicochemical; conditions: three samples (1.2, 1.0, 0.98 mg) in water (1 ml) stirred with CH2Cl2 (1 ml)
# Protocol: Extraction: Three samples (1.2,1.0 and 0.98 mg) were dissolved in water (1 ml) and vigorously stirred with CH2 Cl2 (1 ml). The organic phase was transferred to a clean, tared vial and concentrated in vacuo. The residue was weighed and compared to the theoretical input to gauge the effectiveness of the extraction procedure. Average return for this extraction was about 44% of theoretical.
# [6] = Aqueous stability of 2'-MPM in H2O and 0.2M NaCl; type: physicochemical
# Protocol: Aqueous Stability: The stability of the prodrug in H2 O and 0.2M NaCl was examined at both room temperature and under refrigerated conditions. Samples in H2 O (0.54 mg in 2 ml) and NaCl (0.57 mg in 2 ml) at room temperature were examined at two minute time intervals (0 through 12 minutes), 2 hours and 24 hours. […] At 4° C. the product concentration was unchanged at 24 and 48 hours but decreased to 90% after 72 hours. […] At 4° C. the product concentration was unchanged at 24 hours, was 91% at 48 hours and was 88% at 72 hours.
# [7] = test system: neoplasms including breast; conditions: several types of neoplasms including breast; cited from earlier work
# [8] = freshly prepared solution, 0.53 mg/ml in CH3CN
compound,measurement,setting,value
"CC(=O)O[C@H]1C(=O)[C@@]2(C)[C@H]([C@H](OC(=O)c3ccccc3)[C@]3(O)C[C@H](OC(=O)[C@H](Oc4cccc[n+]4C)[C@@H](NC(=O)c4ccccc4)c4ccccc4)C(C)=C1C3(C)C)[C@]1(OC(C)=O)CO[C@@H]1C[C@@H]2O [2'-MPA, Paclitaxel 2'-Methylpyridinium Acetate]",stability on HPLC purification,[1],decomposes rapidly
same,Paclita. % (paclitaxel in 2'-MPA sample),"[2]; 4° C., 1 Hour",15%
same,Unkno. % (unknown in 2'-MPA sample),"[2]; 4° C., 1 Hour",No peak eluted
same,Paclita. % (paclitaxel in 2'-MPA sample),"[2]; 4° C., 2 Weeks",9%
same,Unkno. % (unknown in 2'-MPA sample),"[2]; 4° C., 2 Weeks",10%
same,Paclita. % (paclitaxel in 2'-MPA sample),"[2]; 4° C., 6 Hours",11%
same,Unkno. % (unknown in 2'-MPA sample),"[2]; 4° C., 6 Hours",14%
same,Paclita. % (paclitaxel in 2'-MPA sample),"[2]; 4° C., 18 Hours",10%
same,Unkno. % (unknown in 2'-MPA sample),"[2]; 4° C., 18 Hours",17%
same,Paclita. % (paclitaxel in 2'-MPA sample),"[2]; 4° C., 42 Hours",9%
same,Unkno. % (unknown in 2'-MPA sample),"[2]; 4° C., 42 Hours",12%
same,Paclita. % (paclitaxel in 2'-MPA sample),"[2]; 4° C., 66 Hours",11%
same,Unkno. % (unknown in 2'-MPA sample),"[2]; 4° C., 66 Hours",16%
same,Paclita. % (paclitaxel in 2'-MPA sample),"[2]; Room Temperature, 1 Hour",14%
same,Unkno. % (unknown in 2'-MPA sample),"[2]; Room Temperature, 1 Hour",8%
same,Paclita. % (paclitaxel in 2'-MPA sample),"[2]; Room Temperature, 6 Hours",14%
same,Unkno. % (unknown in 2'-MPA sample),"[2]; Room Temperature, 6 Hours",8%
same,Paclita. % (paclitaxel in 2'-MPA sample),"[2]; Room Temperature, 42 Hours",17%
same,Unkno. % (unknown in 2'-MPA sample),"[2]; Room Temperature, 42 Hours",10%
same,Paclita. % (paclitaxel in 2'-MPA sample),"[2]; Room Temperature, 66 Hours",13%
same,Unkno. % (unknown in 2'-MPA sample),"[2]; Room Temperature, 66 Hours",8%
same,Paclita. % (paclitaxel in 2'-MPA sample),"[2]; Room Temperature, 90 Hours",15%
same,Unkno. % (unknown in 2'-MPA sample),"[2]; Room Temperature, 90 Hours",12%
same,2'-MPA peak,[2]; [8],75%
same,Paclitaxel peak in 2'-MPA sample,[2]; [8],15%
same,Unknown peak in 2'-MPA sample,[2]; [8],10%
same,remaining at 1 h,"[2]; water/polyethylene glycol, 4° C., 1 Hour, read-out: 2'-MPA %",85%
same,remaining at 336 h,"[2]; water/polyethylene glycol, 4° C., 2 Weeks, read-out: 2'-MPA %",79%
same,remaining at 6 h,"[2]; water/polyethylene glycol, 4° C., 6 Hours, read-out: 2'-MPA %",75%
same,remaining at 18 h,"[2]; water/polyethylene glycol, 4° C., 18 Hours, read-out: 2'-MPA %",73%
same,remaining at 42 h,"[2]; water/polyethylene glycol, 4° C., 42 Hours, read-out: 2'-MPA %",79%
same,remaining at 66 h,"[2]; water/polyethylene glycol, 4° C., 66 Hours, read-out: 2'-MPA %",73%
same,remaining at 1 h,"[2]; water/polyethylene glycol, Room Temperature, 1 Hour, read-out: 2'-MPA %",78%
same,remaining at 6 h,"[2]; water/polyethylene glycol, Room Temperature, 6 Hours, read-out: 2'-MPA %",78%
same,remaining at 18 h,"[2]; water/polyethylene glycol, Room Temperature, 18 Hours, peaks of paclitaxel and unknown coeluted, read-out: 2'-MPA %",69%
same,remaining at 42 h,"[2]; water/polyethylene glycol, Room Temperature, 42 Hours, read-out: 2'-MPA %",73%
same,remaining at 66 h,"[2]; water/polyethylene glycol, Room Temperature, 66 Hours, read-out: 2'-MPA %",79%
same,remaining at 90 h,"[2]; water/polyethylene glycol, Room Temperature, 90 Hours, read-out: 2'-MPA %",73%
"CC(=O)O[C@H]1C(=O)[C@@]2(C)[C@H]([C@H](OC(=O)c3ccccc3)[C@]3(O)C[C@H](OC(=O)[C@H](Oc4cccc[n+]4C)[C@@H](NC(=O)c4ccccc4)c4ccccc4)C(C)=C1C3(C)C)[C@]1(OC(C)=O)CO[C@@H]1C[C@@H]2O [2'-MPM, Paclitaxel-2'-Methylpyridinium Mesylate]",upper limit of solubility,[3]; deionized water,has not been attained as yet
same,Solubility: sample amount for which solution was attained,"[3]; deionized water 0.5 ml, sonicated approx. 1 min",0.97 mg and 0.80 mg
same,Solubility: additional water required to provide a free-flowing solution,"[3]; largest sample (1.54 mg), on top of 0.5 ml deionized water",0.1 mL
same,solubility compared with paclitaxel,[4],much higher than for paclitaxel
same,Average return for extraction into CH2Cl2,[5],about 44 % of theoretical
same,product concentration,"[6]; 0.2M NaCl, 4° C., 24 hours",unchanged
same,remaining at 48 h,"[6]; 0.2M NaCl, 4° C., 48 hours, read-out: product concentration",91%
same,remaining at 72 h,"[6]; 0.2M NaCl, 4° C., read-out: product concentration",88%
same,degraded at 2 h,"[6]; 0.2M NaCl, room temperature, 2 hours, read-out: drop in product concentration",1 to 2%
same,remaining at 24 h,"[6]; 0.2M NaCl, room temperature, 24 hours, read-out: product concentration",70%
same,Aqueous stability,"[6]; 0.2M NaCl, room temperature, first ten minutes",no apparent change
same,remaining at 72 h,"[6]; H2O, 4° C., read-out: product concentration",90%
same,Aqueous stability,"[6]; H2O, room temperature, 2 hours",relatively unchanged
same,remaining at 24 h,"[6]; H2O, room temperature, 24 hours, read-out: product concentration",56%
same,stability compared with 2'-MPA salt,"[6]; aqueous solution, 4° C.",significantly more stable than the 2'-MPA salt
same,MPM salt remaining (summary statement),"[6]; aqueous solution, 4° C., 24 hours",unchanged
same,remaining at 72 h,"[6]; water, aqueous solution, 4° C., read-out: MPM salt remaining (summary statement)",88 to 91%
"CC(=O)O[C@H]1C(=O)[C@@]2(C)[C@H]([C@H](OC(=O)c3ccccc3)[C@]3(O)C[C@H](OC(=O)[C@H](O)[C@@H](NC(=O)c4ccccc4)c4ccccc4)C(C)=C1C3(C)C)[C@]1(OC(C)=O)CO[C@@H]1C[C@@H]2O [Paclitaxel, paclitaxel]",effectiveness in chemotherapy,[7],effective for chemotherapy for several types of neoplasms including breast
